# Results from US20110312968A1, “METHOD FOR OPTIMIZING THE TREATMENT OF CHRONIC MYELOID LEUKEMIA WITH ABL TYROSINE KINASE INHIBITORS” (priority 2008, published 2011).
# What was measured:
# KCL22r cells = assay: 5-Azacytidine treatment of Ima-resistant KCL22r cells: Ima sensitivity (Ima growth inhibition); format: cell-based; settings: Ima-resistant KCL22r cell line after 5-AC treatment
# Source text: (§1) In this study, we have first used, as model system, a couple of Ima-sensitive (KCL22s) and Ima-resistant (KCL22r) KCL22 cell lines. In these cells, Ima resistance is independent by the oncogenic Bcr/Abl activity. We have found a very low level of Shp1 (both mRNA and protein), a protein with a tumour suppressor activity, in the KCL22r resistant cells, when compared to KCL22s sensitive cells. […] Gain-of-function mutations have been described in various hemopoietic neoplasias including Juvenile Chronic Myelomonocytic Leukemia. In Ph+ cells, oncogenic Bcr/Abl protein activates Shp2 through Gab2, an adaptor protein that, once phosphorylated is able to bind SH2 domain of Shp2. Through complex interactions that may involve the two carboxy-terminal tyrosine residues (542 and 580) Shp2 is also a signal transducer of growth factor receptor. We hypothesized that, Shp1, through dephosphorylation, might modulate the activity of Shp2 and constitute an important mechanism of Ima resistance. […] The data on primary cells support the role of Shp1 in Ima resistance in patients.
# [1] = test system: Shp1 expression in KCL22r cells; assay: 5-Azacytidine treatment of Ima-resistant KCL22r cells: Shp1 expression; format: cell-based; settings: Ima-resistant KCL22r cell line; along with demethylation of the SHP1 promoter region
# Source text: as §1
compound,measurement,setting,value
Nc1ncn([C@@H]2O[C@H](CO)[C@@H](O)[C@H]2O)c(=O)n1 [5-Azacytidine],"Ima sensitivity, i.e. Ima growth inhibition",KCL22r cells,re-established the Ima sensitivity
same,expression of Shp1,[1],re-induced expression of Shp1
